What all share (assay type): cell-based
Assay [1] addresses T1, human muscarinic M4 receptor (Homo sapiens, UniProt P08173).
T1 sequence (P08173 1-479): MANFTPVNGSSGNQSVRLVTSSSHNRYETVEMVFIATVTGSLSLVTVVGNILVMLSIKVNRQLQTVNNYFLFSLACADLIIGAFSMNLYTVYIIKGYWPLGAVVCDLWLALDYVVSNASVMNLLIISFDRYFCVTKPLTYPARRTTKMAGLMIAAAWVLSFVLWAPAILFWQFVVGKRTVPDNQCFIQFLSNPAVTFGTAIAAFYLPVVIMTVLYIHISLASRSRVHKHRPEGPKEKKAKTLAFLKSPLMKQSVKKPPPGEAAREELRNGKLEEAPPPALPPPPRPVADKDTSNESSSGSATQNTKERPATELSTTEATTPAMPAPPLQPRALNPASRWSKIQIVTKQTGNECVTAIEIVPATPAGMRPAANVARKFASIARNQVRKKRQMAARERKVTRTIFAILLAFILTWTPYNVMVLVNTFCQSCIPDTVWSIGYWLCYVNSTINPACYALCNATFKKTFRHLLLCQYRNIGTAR
The assay is described as follows: Alphascreen Surefire phospho-ERK1/2 functional assay, M4. The conditions noted are these: for EC50: pEC50 M4, CHO cells stably expressing human M4, phospho-ERK1/2; for % Emax cf. ACh, M4: CHO cells stably expressing human M4. The procedure, abridged: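 CHO cells stably expressing human M1, M2, M3 or M4 receptor, serum-starved overnight, then stimulated with agonist for 5 min at 37 °C. Cells lysed for 15 min and phospho-ERK1/2 detected in the lysate by AlphaScreen SureFire.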

Assay [2] addresses T2, human muscarinic M3 receptor (Homo sapiens, UniProt P20309).
T2 construct: expressed in transfected cells
The experiment in a line: Alphascreen Surefire phospho-ERK1/2 functional assay, M3. The conditions noted are these: for Emax: CHO, read-out: % Emax cf. ACh, M3, CHO cells stably expressing human M3; for Emax / % Emax cf. ACh, M3: Emax relative to ACh; for EC50: pEC50 M3, CHO cells stably expressing human M3, phospho-ERK1/2; for % Emax cf. ACh, M3: CHO cells stably expressing human M3. The procedure: (§1) ERK1/2 phosphorylation is a downstream consequence of both Gq/11 and Gi/o protein coupled receptor activation, making it highly suitable for the assessment of M1, M3 (Gq/11 coupled) and M2, M4 receptors (Gi/o coupled), rather than using different assay formats for different receptor subtypes. CHO cells stably expressing the human muscarinic M1, M2, M3 or M4 receptor were plated (25K/well) onto 96-well tissue culture plates in MEM-alpha+10% dialysed FBS. Once adhered, cells were serum-starved overnight. Agonist stimulation was performed by the addition of 5 μL agonist to the cells for 5 min (37° C.). Media was removed and 50 μL of lysis buffer added. After 15 min, a 4 μL sample was transferred to 384-well plate and 7 μL of detection mixture added.
(§2) Isomer assignment (Isomer 1, Isomer 2, etc.) is based on the retention time of the compound using the separation technique that was performed in the final purification step. By implication, this could be reversed phase HPLC, chiral HPLC or chiral SFC retention time, and this will vary from compound to compound.

The target in assay [3] is T3, human muscarinic M1 receptor (Homo sapiens, UniProt P11229).
T3 sequence (P11229 1-460): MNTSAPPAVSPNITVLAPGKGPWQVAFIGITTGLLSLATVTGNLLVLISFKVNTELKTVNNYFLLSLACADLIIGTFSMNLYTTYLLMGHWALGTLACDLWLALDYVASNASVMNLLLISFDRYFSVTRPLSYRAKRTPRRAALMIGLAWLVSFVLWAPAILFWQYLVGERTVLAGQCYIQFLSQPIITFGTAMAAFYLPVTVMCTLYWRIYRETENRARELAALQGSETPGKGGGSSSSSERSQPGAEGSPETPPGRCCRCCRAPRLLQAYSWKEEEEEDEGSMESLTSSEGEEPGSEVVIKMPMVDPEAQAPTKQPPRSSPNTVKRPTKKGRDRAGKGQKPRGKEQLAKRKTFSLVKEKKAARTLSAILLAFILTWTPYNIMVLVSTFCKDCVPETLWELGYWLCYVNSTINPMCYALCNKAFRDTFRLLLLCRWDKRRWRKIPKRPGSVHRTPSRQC
The experiment in a line: Alphascreen Surefire phospho-ERK1/2 functional assay, M1. The conditions noted are these: for Emax: CHO, read-out: % Emax cf. ACh, M1, CHO cells stably expressing human M1; for Emax / % Emax cf. ACh, M1: Emax relative to ACh; for EC50: pEC50 M1, CHO cells stably expressing human M1, phospho-ERK1/2; for % Emax cf. ACh, M1: CHO cells stably expressing human M1. The method in brief:
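Stably transfected CHO cells, serum-starved overnight, then exposed to agonist for 5 min at 37 °C. Cells lysed and phospho-ERK1/2 measured by AlphaScreen SureFire.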

In assay [4] the target is T4, human muscarinic M2 receptor (Homo sapiens, UniProt P08172).
T4 sequence (P08172 1-466): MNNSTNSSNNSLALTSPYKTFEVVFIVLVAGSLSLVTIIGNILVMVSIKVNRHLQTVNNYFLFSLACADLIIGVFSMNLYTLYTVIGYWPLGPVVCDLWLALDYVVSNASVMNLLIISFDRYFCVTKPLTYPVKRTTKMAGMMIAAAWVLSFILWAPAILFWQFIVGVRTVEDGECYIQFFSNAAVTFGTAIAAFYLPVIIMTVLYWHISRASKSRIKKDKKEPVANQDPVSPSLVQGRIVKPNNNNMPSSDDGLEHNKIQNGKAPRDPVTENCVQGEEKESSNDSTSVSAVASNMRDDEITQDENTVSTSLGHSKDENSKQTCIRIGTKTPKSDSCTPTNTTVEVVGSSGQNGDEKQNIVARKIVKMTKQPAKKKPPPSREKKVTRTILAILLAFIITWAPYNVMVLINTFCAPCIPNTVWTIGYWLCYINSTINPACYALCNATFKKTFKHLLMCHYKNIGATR
The assay is described as follows: Alphascreen Surefire phospho-ERK1/2 functional assay, M2. The conditions noted are these: for Emax: CHO, read-out: % Emax cf. ACh, M2, CHO cells stably expressing human M2; for Emax / % Emax cf. ACh, M2: Emax relative to ACh; for EC50: pEC50 M2, CHO cells stably expressing human M2, phospho-ERK1/2; for % Emax cf. ACh, M2: CHO cells stably expressing human M2. The procedure:
as §1, §2

T2 sequence (P20309 whole entry): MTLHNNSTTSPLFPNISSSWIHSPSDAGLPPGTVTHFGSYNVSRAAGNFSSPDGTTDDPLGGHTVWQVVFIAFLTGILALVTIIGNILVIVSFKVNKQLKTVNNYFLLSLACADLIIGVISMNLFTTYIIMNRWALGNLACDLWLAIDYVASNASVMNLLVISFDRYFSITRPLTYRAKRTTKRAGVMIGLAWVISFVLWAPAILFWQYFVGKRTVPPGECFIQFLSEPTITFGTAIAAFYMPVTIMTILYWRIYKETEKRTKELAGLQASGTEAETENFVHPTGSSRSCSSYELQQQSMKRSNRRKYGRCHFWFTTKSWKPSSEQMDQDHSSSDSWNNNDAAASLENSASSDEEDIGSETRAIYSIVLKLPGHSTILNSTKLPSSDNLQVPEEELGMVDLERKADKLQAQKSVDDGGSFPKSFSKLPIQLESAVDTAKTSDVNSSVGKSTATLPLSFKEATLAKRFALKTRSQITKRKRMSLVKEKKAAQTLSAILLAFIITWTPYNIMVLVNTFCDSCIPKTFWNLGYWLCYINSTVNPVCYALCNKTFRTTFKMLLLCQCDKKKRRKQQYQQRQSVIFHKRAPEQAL

As for `CCOC(=O)N1C2COCC1CC(N1CCC(n3cccn3)CC1)C2` (single isomer, unassigned) [Example 1-1 Isomer 1, Ethyl 7-[4-(1H-pyrazol-1-yl)piperidin-1-yl]-3-oxa-9-azabicyclo[3.3.1]nonane-9-carboxylate], the Emax in assay [1] (CHO, read-out: % Emax cf. ACh, M4, CHO cells stably expressing human M4, Emax relative to ACh) came out at 100%; in assay [2] it was 13%; in assay [3] it was 116%; in assay [4] it was 57%. In addition, the EC50 in assay [1] is 52.5 nM; in assay [2], greater than 20000 nM; in assay [3] it was 427 nM; in assay [4], 575 nM.

Consider `CCOC(=O)N1C2COCC1CC(N1CCC(N3CCCCC3=O)CC1)C2` (single isomer, unassigned) [Example 6-6 Isomer 1, Ethyl 7-(2-oxo-1,4′-bipiperidin-1′-yl)-3-oxa-9-azabicyclo[3.3.1]nonane-9-carboxylate], for which, in assay [1] (Emax relative to ACh, listed as 6-6 Isomer 1), the “% Emax cf. ACh, M4” value amounted to 109%. The EC50 in assay [1] is 19.1 nM; in assay [2] it was greater than 20000 nM; in assay [3], 251 nM; in assay [4], 339 nM. The “% Emax cf. ACh, M3” value in assay [2] (listed as 6-6 Isomer 1) was determined as 7%. Moreover, the “% Emax cf. ACh, M1” value in assay [3] (listed as 6-6 Isomer 1) is listed as 103%. Further, in assay [4] (listed as 6-6 Isomer 1), the “% Emax cf. ACh, M2” value was found to be 60%.

For the molecule `CCOC(=O)N1C2COCC1CC(N1CCC3(CC1)CC3)C2` (single isomer, unassigned) [Example 5-1 Isomer 1, Ethyl 7-(6-azaspiro[2.5]oct-6-yl)-3-oxa-9-azabicyclo[3.3.1]nonane-9-carboxylate], in assay [1] (Emax relative to ACh, listed as 5-1 Isomer 1), the “% Emax cf. ACh, M4” value came to 13%. Moreover, the EC50 in assay [1] is greater than 20000 nM; in assay [2], greater than 20000 nM; in assay [3], 72.4 nM; in assay [4], greater than 20000 nM. The “% Emax cf. ACh, M3” value in assay [2] (listed as 5-1 Isomer 1) is listed as 0%. In addition, the Emax came to 47% in assay [3] and 8% in assay [4].

`CCOC(=O)N1C2COCC1CC(N1CCC(N3CCCCC3=O)CC1)C2` (single isomer, unassigned) [Example 6-6 Isomer 2, Ethyl 7-(2-oxo-1,4′-bipiperidin-1′-yl)-3-oxa-9-azabicyclo[3.3.1]nonane-9-carboxylate]: in assay [1] (Emax relative to ACh, listed as 6-6 Isomer 2), the “% Emax cf. ACh, M4” value amounted to 48%. Moreover, the EC50 was 81.3 nM in assay [1], 977 nM in assay [3] and greater than 20000 nM in assay [4]. Moreover, in assay [2] (listed as 6-6 Isomer 2), the “% Emax cf. ACh, M3” value turned out to be 3%. In addition, the “% Emax cf. ACh, M1” value in assay [3] (listed as 6-6 Isomer 2) came out at 50%. In addition, in assay [4] (listed as 6-6 Isomer 2), the “% Emax cf. ACh, M2” value came out at 6%.

As for `CCOC(=O)N1C2COCC1CC(N1CCC(c3cccnc3OC)CC1)C2` (single isomer, unassigned) [Example 2-2 Isomer 2, Ethyl 7-[4-(2-methoxypyridin-3-yl)piperidin-1-yl]-3-oxa-9-azabicyclo[3.3.1]nonane-9-carboxylate], the “% Emax cf. ACh, M4” value in assay [1] (Emax relative to ACh, listed as 2-2 Isomer 2) came to 37%. In assay [1], this molecule had a 50% effective concentration (EC50) of 112 nM. In assay [2], the “% Emax cf. ACh, M3” value is reported as 5%. Besides, the “% Emax cf. ACh, M1” value in assay [3] (listed as 2-2 Isomer 2) is given as 10%. In assay [4], the “% Emax cf. ACh, M2” value is listed as 3%.

For `CCOC(=O)N1C2COCC1CC(N1CCC3(CC1)OC(=O)NC3CC)C2` (single isomer, unassigned) [Example 5-4 Isomer 1a, Ethyl 7-(4-ethyl-2-oxo-1-oxa-3,8-diazaspiro[4.5]dec-8-yl)-3-oxa-9-azabicyclo[3.3.1]nonane-9-carboxylate], the “% Emax cf. ACh, M4” value in assay [1] (Emax relative to ACh, listed as 5-4 Isomer 1a) turned out to be 81%. Further, the EC50 in assay [1] is 145 nM; in assay [2], greater than 20000 nM; in assay [3], 1480 nM; in assay [4], greater than 20000 nM. The Emax in assay [2] worked out at 2%. Besides, the “% Emax cf. ACh, M1” value in assay [3] (listed as 5-4 Isomer 1a) was determined as 76%. Moreover, the “% Emax cf. ACh, M2” value in assay [4] (listed as 5-4 Isomer 1a) amounted to 3%.

As for `CCOC(=O)N1C2COCC1CC(N1CCC3(CC1)CC3)C2` (single isomer, unassigned) [Example 5-1 Isomer 2, Ethyl 7-(6-azaspiro[2.5]oct-6-yl)-3-oxa-9-azabicyclo[3.3.1]nonane-9-carboxylate], the “% Emax cf. ACh, M4” value in assay [1] (Emax relative to ACh, listed as 5-1 Isomer 2) amounted to 41%. In assay [1], this molecule showed an EC50 of 33.9 nM. For the same molecule, in assay [2] (listed as 5-1 Isomer 2), the “% Emax cf. ACh, M3” value turned out to be 8%. In addition, in assay [3], the “% Emax cf. ACh, M1” value is given as 66% and a half-maximal response (EC50) required 141 nM. Also, the “% Emax cf. ACh, M2” value in assay [4] is 13%.

On to `CCOC(=O)N1C2COCC1CC(N1CCC(c3ccc[nH]c3=O)CC1)C2` (single isomer, unassigned) [Example 2-3 Isomer 2, Ethyl 7-[4-(2-oxo-1,2-dihydropyridin-3-yl)piperidin-1-yl]-3-oxa-9-azabicyclo[3.3.1]nonane-9-carboxylate], for which the “% Emax cf. ACh, M4” value in assay [1] (Emax relative to ACh, listed as 2-3 Isomer 2) turned out to be 65%. Also, the EC50 in assay [1] was 11.5 nM; in assay [3], 174 nM; in assay [4], greater than 20000 nM. Moreover, in assay [2], the “% Emax cf. ACh, M3” value turned out to be 5%. For the same molecule, the “% Emax cf. ACh, M1” value in assay [3] (listed as 2-3 Isomer 2) came out at 34%. Moreover, in assay [4] (listed as 2-3 Isomer 2), the “% Emax cf. ACh, M2” value turned out to be 10%.

For the origin of these results see patent US10787447B2, “Pharmaceutical compounds” (Heptares Therapeutics Limited, priority 2018, dated 2020).
